Like-named read-outs stand apart in the source and are kept apart here.
Test system: 134 cancer cell lines
Test: Cell viability assay (ATPlite, 72 hours), IC50 on cancer cell line panel

Measured: IC50

CCN1CCN(c2ccc(Nc3cc(N(C)C(=O)Nc4c(Cl)c(OC)cc(OC)c4Cl)ncn3)cc2)CC1 [infigratinib]
4.47 µM: Homo sapiens, SK-N-SH, read-out: IC50 in cell proliferation assay, cell line SK-N-SH (ALK p.F1174L)
0.525 µM: Rh30, read-out: IC50 in cell proliferation assay, cell line Rh30
3.51 µM: read-out: IC50 in cell proliferation assay, cell line DEL (NPM1-ALK)
0.466 µM: Homo sapiens, NCCIT, read-out: IC50 in cell proliferation assay, NCC-IT cell line
> 3.16 µM: Homo sapiens, MOLT-4, read-out: IC50 in cell proliferation assay, MOLT-4 cell line | Homo sapiens, MeWo, read-out: IC50 in cell proliferation assay, MeWo cell line | Homo sapiens, NCI-H82, read-out: IC50 in cell proliferation assay, cell line NCI-H82 | Homo sapiens, NCI-H460, read-out: IC50 in cell proliferation assay, NCI-H460 cell line | Homo sapiens, NCI-H661, read-out: IC50 in cell proliferation assay, NCI-H661 cell line | Homo sapiens, NCI-H1975, read-out: IC50 in cell proliferation assay, NCI-H1975 cell line (EGFR p.L858R + p.T790M) | Homo sapiens, OVCAR-3, read-out: IC50 in cell proliferation assay, cell line OVCAR-3 | Homo sapiens, PFSK-1, read-out: IC50 in cell proliferation assay, cell line PFSK-1 | Homo sapiens, RL95-2, read-out: IC50 in cell proliferation assay, cell line RL95-2 (EGFR p.A289V) | Homo sapiens, RPMI-7951, read-out: IC50 in cell proliferation assay, cell line RPMI-7951 (BRAF p.V600E) | Homo sapiens, RS4-11, read-out: IC50 in cell proliferation assay, cell line RS4;11 | Homo sapiens, SHP77, read-out: IC50 in cell proliferation assay, cell line SHP-77 | Homo sapiens, SK-BR-3, read-out: IC50 in cell proliferation assay, cell line SK-BR-3 (ERBB2 amplification) | Homo sapiens, SK-N-AS, read-out: IC50 in cell proliferation assay, cell line SK-N-AS | Homo sapiens, SK-N-FI, read-out: IC50 in cell proliferation assay, cell line SK-N-FI | Homo sapiens, SNU-5, read-out: IC50 in cell proliferation assay, cell line SNU-5 (MET amplification) | Homo sapiens, SNU-C2B, read-out: IC50 in cell proliferation assay, cell line SNU-C2B (EGFR p.R165Q) | Homo sapiens, SU-DHL-1, read-out: IC50 in cell proliferation assay, cell line SU-DHL-1 (NPM1-ALK) | Homo sapiens, SU-DHL-6, read-out: IC50 in cell proliferation assay, cell line SU-DHL-6 | Homo sapiens, SUP-T1, read-out: IC50 in cell proliferation assay, cell line SUP-T1 | Homo sapiens, SW48, read-out: IC50 in cell proliferation assay, cell line SW48 (EGFR p.G719S) | Homo sapiens, SW480, read-out: IC50 in cell proliferation assay, cell line SW480 | Homo sapiens, SW626, read-out: IC50 in cell proliferation assay, cell line SW626 | Homo sapiens, SW837, read-out: IC50 in cell proliferation assay, cell line SW837 | Homo sapiens, SW872, read-out: IC50 in cell proliferation assay, cell line SW872 (BRAF p.V600E) | Homo sapiens, SW900, read-out: IC50 in cell proliferation assay, cell line SW900 | Homo sapiens, SW948, read-out: IC50 in cell proliferation assay, cell line SW948 | Homo sapiens, SW982, read-out: IC50 in cell proliferation assay, cell line SW982 (BRAF p.V600E) | Homo sapiens, SW-620, read-out: IC50 in cell proliferation assay, cell line SW620 | Homo sapiens, TCC-SUP, read-out: IC50 in cell proliferation assay, cell line TCCSUP | Homo sapiens, THP-1, read-out: IC50 in cell proliferation assay, cell line THP-1 | Homo sapiens, U2OS, read-out: IC50 in cell proliferation assay, cell line U2OS | Homo sapiens, U-87 MG, read-out: IC50 in cell proliferation assay, cell line U-87MG ATCC | Homo sapiens, U-118-MG, read-out: IC50 in cell proliferation assay, cell line U-118MG | Hs766T, read-out: IC50 in cell proliferation assay, Hs 766T cell line | read-out: IC50 in cell proliferation assay, 11-18 cell line (EGFR p.L858R) | read-out: IC50 in cell proliferation assay, cell line 5637 | read-out: IC50 in cell proliferation assay, cell line A-388 | read-out: IC50 in cell proliferation assay, cell line DB | read-out: IC50 in cell proliferation assay, cell line ES-2 (BRAF p.V600E) | read-out: IC50 in cell proliferation assay, cell line PC-3 | read-out: IC50 in cell proliferation assay, cell line RD | read-out: IC50 in cell proliferation assay, cell line RKO (BRAF p.V600E) | read-out: IC50 in cell proliferation assay, cell line RL | read-out: IC50 in cell proliferation assay, cell line SR (NPM1-ALK) | read-out: IC50 in cell proliferation assay, cell line T24 | read-out: IC50 in cell proliferation assay, cell line TT (RET p.C634W) | read-out: IC50 in cell proliferation assay, cell line VA-ES-BJ
0.135 µM: Homo sapiens, T98G, read-out: IC50 in cell proliferation assay, cell line T98G
4 µM: Homo sapiens, Rec1, read-out: IC50 in cell proliferation assay, cell line REC-1
2.15 µM: read-out: IC50 in cell proliferation assay, cell line PA-1
0.014 µM: read-out: IC50 in cell proliferation assay, cell line RT-4 (FGFR3-TACC3)
5.37 µM: read-out: IC50 in cell proliferation assay, Hs 852.T cell line
0.028 µM: Homo sapiens, SNU-16, read-out: IC50 in cell proliferation assay, cell line SNU-16 (FGFR2 amplification)
5.09 µM: Homo sapiens, NCI-H1650, read-out: IC50 in cell proliferation assay, NCI-H1650 cell line (EGFR exon19del)
3.21 µM: Homo sapiens, SK-N-MC, read-out: IC50 in cell proliferation assay, cell line SK-N-MC
3.99 µM: Homo sapiens, MOLM-13, read-out: IC50 in cell proliferation assay, MOLM-13 cell line (FLT3 ITD)
0.625 µM: Homo sapiens, UMUC3, read-out: IC50 in cell proliferation assay, cell line UM-UC-3
0.039 µM: Homo sapiens, SW780, read-out: IC50 in cell proliferation assay, cell line SW780 (FGFR3-BAIAP2L1)
0.02 µM: Homo sapiens, NCI-H716, read-out: IC50 in cell proliferation assay, cell line NCI-H716 (FGFR2-COL14A1)
2.99 µM: read-out: IC50 in cell proliferation assay, JAR cell line
4.38 µM: Homo sapiens, NCI-H2228, read-out: IC50 in cell proliferation assay, NCI-H2228 cell line (EML4-ALK)
2.57 µM: Homo sapiens, MV4-11, read-out: IC50 in cell proliferation assay, MV4-11 cell line (FLT3 ITD)

— publication PMC9516332 (Frontiers in Oncology, 2022)
